How the values were obtained:
Assay in all cases: relative viability (nuclei count vs DMSO), 5 days (fraction); higher = more cells survive
EHT 1864 + Lapatinib = compound: C1COCCN1CC2=CC(=O)C(=CO2)OCCCCCSC3=C4C=CC(=CC4=NC=C3)C(F)(F)F [EHT 1864] + CS(=O)(=O)CCNCc1ccc(-c2ccc3ncnc(Nc4ccc(OCc5cccc(F)c5)c(Cl)c4)c3c2)o1 [Lapatinib] (partner 2 µM)
Procedure, shortened: (§1)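 Values are medians from duplicate plates. Each reflects relative viability, defined as the nuclei count of treated wells over that of vehicle wells. Lung cancer cell lines in 1536-well plates were pin-tool dosed one day after seeding with one drug alone or with a fixed anchor-drug dose plus five library-drug doses (not always all listed) in √10 steps, then fixed, stained and imaged at 4× after 5 days.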

EHT 1864 + Bortezomib = compound: C1COCCN1CC2=CC(=O)C(=CO2)OCCCCCSC3=C4C=CC(=CC4=NC=C3)C(F)(F)F [EHT 1864] + CC(C)C[C@H](NC(=O)[C@H](Cc1ccccc1)NC(=O)c1cnccn1)B(O)O [Bortezomib] (partner 0.002 µM)
Procedure, shortened: as §1

EHT 1864 + Decitabine = compound: C1COCCN1CC2=CC(=O)C(=CO2)OCCCCCSC3=C4C=CC(=CC4=NC=C3)C(F)(F)F [EHT 1864] + Nc1ncn([C@H]2C[C@H](O)[C@@H](CO)O2)c(=O)n1 [Decitabine] (partner 2 µM)
Procedure, shortened: as §1

EHT 1864 + AZD7762 = compound: C1COCCN1CC2=CC(=O)C(=CO2)OCCCCCSC3=C4C=CC(=CC4=NC=C3)C(F)(F)F [EHT 1864] + NC(=O)Nc1cc(-c2cccc(F)c2)sc1C(=O)N[C@H]1CCCNC1 [AZD7762] (partner 0.2 µM)
Procedure, shortened: as §1

Cell Line	relative viability (EHT 1864 + Lapatinib; first compound 0.04 µM)	relative viability (EHT 1864 + Lapatinib; first compound 0.1265 µM)	relative viability (EHT 1864 + Lapatinib; first compound 0.4 µM)	relative viability (EHT 1864 + Lapatinib; first compound 1.265 µM)	relative viability (EHT 1864 + Lapatinib; first compound 4 µM)	relative viability (EHT 1864 + Bortezomib; first compound 0.04 µM)	relative viability (EHT 1864 + Bortezomib; first compound 0.1265 µM)	relative viability (EHT 1864 + Bortezomib; first compound 0.4 µM)	relative viability (EHT 1864 + Bortezomib; first compound 1.265 µM)	relative viability (EHT 1864 + Bortezomib; first compound 4 µM)	relative viability (EHT 1864 + Decitabine; first compound 0.04 µM)	relative viability (EHT 1864 + Decitabine; first compound 0.1265 µM)	relative viability (EHT 1864 + Decitabine; first compound 0.4 µM)	relative viability (EHT 1864 + Decitabine; first compound 1.265 µM)	relative viability (EHT 1864 + Decitabine; first compound 4 µM)	relative viability (EHT 1864 + AZD7762; first compound 0.04 µM)	relative viability (EHT 1864 + AZD7762; first compound 0.1265 µM)	relative viability (EHT 1864 + AZD7762; first compound 0.4 µM)	relative viability (EHT 1864 + AZD7762; first compound 1.265 µM)	relative viability (EHT 1864 + AZD7762; first compound 4 µM)
NCI-H1437	0.793	0.723	0.678	0.636	0.62	0.563	0.476	0.475	0.486	0.473	0.607	0.523	0.542	0.566	0.518	1.1	1.1	1.09	1.02	0.889
NCI-H1651	0.856	0.788	0.843	0.824	0.912	0.988	0.89	0.974	0.868	0.929	0.55	0.695	0.631	0.652	0.594	0.396	0.439	0.469	0.482	0.556
NCI-H1666	0.822	0.484	0.584	0.775	0.841	0.763	0.728	0.772	0.78	0.98	0.755	0.742	0.712	0.768	0.865	0.826	0.747	0.915	0.997	1.1
NCI-H1734	1.08	0.86	1.09	1.01	1.12	1.09	0.788	0.914	0.902	0.901	0.495	0.552	0.478	0.511	0.514	0.65	0.427	0.537	0.611	0.618
NCI-H1755	1.08	0.866	1.04	0.998	1.05	1.02	0.824	0.895	0.899	0.941	0.803	0.685	0.702	0.707	0.755	0.438	0.424	0.405	0.402	0.456
NCI-H1792	0.864	0.777	0.926	0.882	0.928	0.859	0.877	0.926	0.866	0.919	0.506		0.515	0.567	0.601	0.746		0.733	0.592	0.738
NCI-H1915	1.03		0.993	0.937	0.902	1		1.01	0.934	0.964	0.259		0.265	0.26	0.265	0.728		0.681	0.711	0.719
NCI-H1975	0.868	0.9	0.802	0.837	0.856	0.343	0.395	0.376	0.32	0.369	0.41	0.411	0.404	0.384	0.398	0.733	0.717	0.676	0.642	0.68
NCI-H1993	0.918	0.812	0.806	0.864	0.858	0.973	0.733	1.06	1.01	1.06	0.552		0.598	0.645	0.57	0.71		0.827	0.775	0.83
NCI-H2085	0.809	0.678	0.807	0.716	0.744	0.989	0.785	0.962	0.971	0.782	0.604	0.551	0.588	0.656	0.555	0.962	0.645	0.973	0.987	0.942
NCI-H2087	1.03	0.485	1.01	0.614	0.789	0.629	0.569	0.753	0.739	0.781	0.253		0.267	0.287	0.3	1.25		1.2	1.25	1.23
NCI-H2126	0.779	0.723	0.759	0.798	0.697	1.16	1.1	1.11	1.09	1	0.652	0.572	0.547	0.62	0.566	1.02	0.866	0.95	0.93	0.957
NCI-H2347	0.961	0.638	0.814	0.793	1.12	1.24		1.13	0.894	0.995	0.571	0.488	0.675	0.64	0.559	0.776	0.654	0.621	0.727	0.792
NCI-H2405	1.1	1.02	1.11		1.13	1.05	0.945	0.84	0.76	1.02	0.832	0.717	0.785	0.736	0.772	0.8	0.657	0.728	0.687	0.697
NCI-H3122	0.976	0.825	1.03	1.08	1	1.03	0.973	0.96	0.99	0.965	0.373	0.423	0.42	0.432	0.339	0.882	0.808	0.911	0.985	0.878
PC-3 [JPC-3]	0.508	0.405	0.452	0.474	0.438	0.83	0.737	0.895	0.853	0.763	0.801	0.745	0.877	0.954	0.844	0.825	0.753	0.808	0.73	0.863
